# Results taken from PubChem BioAssay (NCI).
#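 GI50 = concentration required for 50% inhibition of growth. The concentration for full growth arrest is given as TGI.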
# Tests used:
# Assay in all cases: DTP human tumour cell line panel, 384-well format
# MOLT-4 leukemia = tested on: MOLT-4 leukemia
# HL-60(TB) leukemia = tested on: HL-60(TB) leukemia
# OVCAR-5 ovarian = tested on: OVCAR-5 ovarian
# MDA-MB-435 melanoma = tested on: MDA-MB-435 melanoma
# ACHN renal = tested on: ACHN renal
# UACC-257 melanoma = tested on: UACC-257 melanoma
# MALME-3M melanoma = tested on: MALME-3M melanoma
# A498 renal = tested on: A498 renal
# BT-549 breast = tested on: BT-549 breast
# IGROV1 ovarian = tested on: IGROV1 ovarian
# SK-MEL-5 melanoma = tested on: SK-MEL-5 melanoma
# SK-MEL-28 melanoma = tested on: SK-MEL-28 melanoma
# UACC-62 melanoma = tested on: UACC-62 melanoma
# NCI/ADR-RES ovarian = tested on: NCI/ADR-RES ovarian
# NCI-H226 lung = tested on: NCI-H226 lung
# CCRF-CEM leukemia = tested on: CCRF-CEM leukemia
# RXF 393 renal = tested on: RXF 393 renal
# SF-295 CNS = tested on: SF-295 CNS
# 786-0 renal = tested on: 786-0 renal
# HOP-92 NSCLC = tested on: HOP-92 NSCLC
# NCI-H23 lung = tested on: NCI-H23 lung
# SR leukemia = tested on: SR leukemia
# SK-MEL-2 melanoma = tested on: SK-MEL-2 melanoma
# DU-145 prostate = tested on: DU-145 prostate
# SW-620 colon = tested on: SW-620 colon
# TK-10 renal = tested on: TK-10 renal
# RPMI-8226 leukemia = tested on: RPMI-8226 leukemia
# MCF7 breast = tested on: MCF7 breast
# HCT-116 colon = tested on: HCT-116 colon
# COLO 205 colon = tested on: COLO 205 colon
# NCI-H460 NSCLC = tested on: NCI-H460 NSCLC
# SNB-19 CNS = tested on: SNB-19 CNS
# HT29 colon = tested on: HT29 colon
# CAKI-1 renal = tested on: CAKI-1 renal
# SF-539 CNS = tested on: SF-539 CNS
# NCI-H322M lung = tested on: NCI-H322M lung
# NCI-H522 lung = tested on: NCI-H522 lung
# MDA-MB-468 breast = tested on: MDA-MB-468 breast
# U251 glioblastoma = tested on: U251 glioblastoma
# PC-3 prostate = tested on: PC-3 prostate
# SN12C renal = tested on: SN12C renal
# HCC-2998 colon = tested on: HCC-2998 colon
# LOX IMVI melanoma = tested on: LOX IMVI melanoma
# A549 NSCLC = tested on: A549 NSCLC
# OVCAR-8 ovarian = tested on: OVCAR-8 ovarian
# K-562 leukemia = tested on: K-562 leukemia
# T-47D breast = tested on: T-47D breast
# M14 melanoma = tested on: M14 melanoma
# KM12 colon = tested on: KM12 colon
# SK-OV-3 ovarian = tested on: SK-OV-3 ovarian
# HOP-62 NSCLC = tested on: HOP-62 NSCLC
# SF-268 CNS = tested on: SF-268 CNS
# UO-31 renal = tested on: UO-31 renal
# OVCAR-4 ovarian = tested on: OVCAR-4 ovarian
# HCT-15 colon = tested on: HCT-15 colon
smiles,measurement,setting,value
CS(=O)(=O)OCCCCOS(C)(=O)=O,GI50,MOLT-4 leukemia,9660 nM
same,TGI,MOLT-4 leukemia,21800 nM
same,GI50,HL-60(TB) leukemia,17700 nM
C/C(=N\NC(=O)c1cccc(S(=O)(=O)N2CCN(C)CC2)c1)c1cc(Cl)ccc1O,GI50,OVCAR-5 ovarian,455 nM
same,TGI,OVCAR-5 ovarian,35300 nM
same,GI50,MDA-MB-435 melanoma,557 nM
same,TGI,MDA-MB-435 melanoma,74200 nM
same,GI50,ACHN renal,627 nM
same,TGI,ACHN renal,13400 nM
same,GI50,UACC-257 melanoma,521 nM
same,TGI,UACC-257 melanoma,3980 nM
same,GI50,MALME-3M melanoma,641 nM
same,TGI,MALME-3M melanoma,8520 nM
same,GI50,A498 renal,268 nM
same,TGI,A498 renal,20100 nM
same,GI50,BT-549 breast,351 nM
same,TGI,BT-549 breast,4190 nM
same,GI50,IGROV1 ovarian,339 nM
same,TGI,IGROV1 ovarian,2750 nM
same,GI50,SK-MEL-5 melanoma,62 nM
same,TGI,SK-MEL-5 melanoma,441 nM
same,GI50,SK-MEL-28 melanoma,134 nM
same,TGI,SK-MEL-28 melanoma,14300 nM
same,GI50,UACC-62 melanoma,544 nM
same,TGI,UACC-62 melanoma,2860 nM
same,GI50,NCI/ADR-RES ovarian,777 nM
same,TGI,NCI/ADR-RES ovarian,2360 nM
same,GI50,MOLT-4 leukemia,114 nM
same,TGI,MOLT-4 leukemia,240 nM
same,GI50,NCI-H226 lung,523 nM
same,TGI,NCI-H226 lung,3450 nM
same,GI50,CCRF-CEM leukemia,216 nM
same,TGI,CCRF-CEM leukemia,1070 nM
same,GI50,RXF 393 renal,43 nM
same,TGI,RXF 393 renal,557 nM
same,GI50,SF-295 CNS,250 nM
same,TGI,SF-295 CNS,1310 nM
same,GI50,786-0 renal,345 nM
same,TGI,786-0 renal,2210 nM
same,GI50,HOP-92 NSCLC,573 nM
same,TGI,HOP-92 NSCLC,6820 nM
same,GI50,NCI-H23 lung,236 nM
same,TGI,NCI-H23 lung,590 nM
same,GI50,SR leukemia,144 nM
same,TGI,SR leukemia,287 nM
same,GI50,SK-MEL-2 melanoma,567 nM
same,TGI,SK-MEL-2 melanoma,3580 nM
same,GI50,DU-145 prostate,534 nM
same,TGI,DU-145 prostate,11600 nM
same,GI50,SW-620 colon,1640 nM
same,TGI,SW-620 colon,19000 nM
same,GI50,TK-10 renal,642 nM
same,TGI,TK-10 renal,19800 nM
same,GI50,RPMI-8226 leukemia,339 nM
same,TGI,RPMI-8226 leukemia,1180 nM
same,GI50,MCF7 breast,594 nM
same,TGI,MCF7 breast,8010 nM
same,GI50,HCT-116 colon,425 nM
same,TGI,HCT-116 colon,2020 nM
same,GI50,COLO 205 colon,236 nM
same,TGI,COLO 205 colon,594 nM
same,GI50,NCI-H460 NSCLC,296 nM
same,TGI,NCI-H460 NSCLC,1210 nM
same,GI50,SNB-19 CNS,1060 nM
same,TGI,SNB-19 CNS,6020 nM
same,GI50,HT29 colon,439 nM
same,TGI,HT29 colon,13600 nM
same,GI50,CAKI-1 renal,472 nM
same,TGI,CAKI-1 renal,10200 nM
same,GI50,SF-539 CNS,442 nM
same,TGI,SF-539 CNS,3310 nM
same,GI50,NCI-H322M lung,231 nM
same,TGI,NCI-H322M lung,32000 nM
same,GI50,NCI-H522 lung,471 nM
same,TGI,NCI-H522 lung,12000 nM
same,GI50,MDA-MB-468 breast,177 nM
same,TGI,MDA-MB-468 breast,382 nM
same,GI50,U251 glioblastoma,478 nM
same,TGI,U251 glioblastoma,8250 nM
same,GI50,PC-3 prostate,1160 nM
same,TGI,PC-3 prostate,17400 nM
same,GI50,SN12C renal,735 nM
same,TGI,SN12C renal,3360 nM
same,GI50,HCC-2998 colon,54.5 nM
same,TGI,HCC-2998 colon,15000 nM
same,GI50,LOX IMVI melanoma,644 nM
same,TGI,LOX IMVI melanoma,2030 nM
same,GI50,A549 NSCLC,447 nM
same,TGI,A549 NSCLC,> 100000 nM
same,GI50,OVCAR-8 ovarian,477 nM
same,TGI,OVCAR-8 ovarian,1950 nM
same,GI50,K-562 leukemia,2620 nM
same,TGI,K-562 leukemia,13800 nM
same,GI50,T-47D breast,657 nM
same,TGI,T-47D breast,9270 nM
same,GI50,M14 melanoma,247 nM
same,TGI,M14 melanoma,1990 nM
same,GI50,HL-60(TB) leukemia,442 nM
same,TGI,HL-60(TB) leukemia,1220 nM
same,GI50,KM12 colon,541 nM
same,TGI,KM12 colon,14700 nM
same,GI50,SK-OV-3 ovarian,422 nM
same,TGI,SK-OV-3 ovarian,57200 nM
same,GI50,HOP-62 NSCLC,142 nM
same,TGI,HOP-62 NSCLC,898 nM
same,GI50,SF-268 CNS,141 nM
same,TGI,SF-268 CNS,2150 nM
same,GI50,UO-31 renal,489 nM
same,TGI,UO-31 renal,8090 nM
same,GI50,OVCAR-4 ovarian,201 nM
same,TGI,OVCAR-4 ovarian,29000 nM
same,GI50,HCT-15 colon,301 nM
same,TGI,HCT-15 colon,12900 nM
